Assay results reported in ChEMBL document CHEMBL1255447, “Efflux pumps, OprD porin, AmpC beta-lactamase, and multiresistance in Pseudomonas aeruginosa isolates from cystic fibrosis patients” (2010).
Converted amounts (≈) assume the structure as drawn.

system: Pseudomonas aeruginosa; test: Antimicrobial activity against Pseudomonas aeruginosa isolate 1681c from fibrosis patient by Etest; assay type: functional; details: not given

Structure (SMILES)	MIC
C[C@@H](O)[C@H]1C(=O)N2C(C(=O)O)=C(SCCNC=N)C[C@H]12 [IMIPENEM ANHYDROUS]	32 µg/mL (≈ 107 µM)

system: Pseudomonas aeruginosa; test: Antimicrobial activity against Pseudomonas aeruginosa isolate 1665 from fibrosis patient by Etest; assay type: functional; details: not given

Structure (SMILES)	MIC
C[C@@H](O)[C@H]1C(=O)N2C(C(=O)O)=C(SCCNC=N)C[C@H]12 [IMIPENEM ANHYDROUS]	64 µg/mL (≈ 214 µM)

system: Pseudomonas aeruginosa; test: Antimicrobial activity against Pseudomonas aeruginosa isolate 17112 from fibrosis patient by Etest; assay type: functional; details: not given

Structure (SMILES)	MIC
C[C@@H](O)[C@H]1C(=O)N2C(C(=O)O)=C(SCCNC=N)C[C@H]12 [IMIPENEM ANHYDROUS]	128 µg/mL (≈ 428 µM)

system: Pseudomonas aeruginosa; test: Antimicrobial activity against Pseudomonas aeruginosa isolate 14169c from fibrosis patient by Etest; assay type: functional; details: not given

Structure (SMILES)	MIC
C[C@@H](O)[C@H]1C(=O)N2C(C(=O)O)=C(SCCNC=N)C[C@H]12 [IMIPENEM ANHYDROUS]	16 µg/mL (≈ 53.4 µM)

system: Pseudomonas aeruginosa; test: Antimicrobial activity against Pseudomonas aeruginosa isolate 1352c from fibrosis patient by Etest; assay type: functional; details: not given

Structure (SMILES)	MIC
C[C@@H](O)[C@H]1C(=O)N2C(C(=O)O)=C(SCCNC=N)C[C@H]12 [IMIPENEM ANHYDROUS]	> 32 µg/mL

system: Pseudomonas aeruginosa; test: Antimicrobial activity against Pseudomonas aeruginosa R70 Etest; assay type: functional; details: not given

Structure (SMILES)	MIC
C[C@@H](O)[C@H]1C(=O)N2C(C(=O)O)=C(SCCNC=N)C[C@H]12 [IMIPENEM ANHYDROUS]	16 µg/mL (≈ 53.4 µM)

system: Pseudomonas aeruginosa; test: Antimicrobial activity against Pseudomonas aeruginosa isolate 17145c from fibrosis patient by Etest; assay type: functional; details: not given

Structure (SMILES)	MIC
C[C@@H](O)[C@H]1C(=O)N2C(C(=O)O)=C(SCCNC=N)C[C@H]12 [IMIPENEM ANHYDROUS]	32 µg/mL (≈ 107 µM)

system: Pseudomonas aeruginosa; test: Antimicrobial activity against Pseudomonas aeruginosa isolate 16008 from fibrosis patient by Etest; assay type: functional; details: not given

Structure (SMILES)	MIC
C[C@@H](O)[C@H]1C(=O)N2C(C(=O)O)=C(SCCNC=N)C[C@H]12 [IMIPENEM ANHYDROUS]	64 µg/mL (≈ 214 µM)

system: Pseudomonas aeruginosa; test: Antimicrobial activity against Pseudomonas aeruginosa isolate 12102 from fibrosis patient by Etest; assay type: functional; details: not given

Structure (SMILES)	MIC
C[C@@H](O)[C@H]1C(=O)N2C(C(=O)O)=C(SCCNC=N)C[C@H]12 [IMIPENEM ANHYDROUS]	32 µg/mL (≈ 107 µM)

system: Pseudomonas aeruginosa; test: Antimicrobial activity against Pseudomonas aeruginosa isolate 1726 from fibrosis patient by Etest; assay type: functional; details: not given

Structure (SMILES)	MIC
C[C@@H](O)[C@H]1C(=O)N2C(C(=O)O)=C(SCCNC=N)C[C@H]12 [IMIPENEM ANHYDROUS]	4 µg/mL (≈ 13.4 µM)

system: Pseudomonas aeruginosa; test: Antimicrobial activity against Pseudomonas aeruginosa R20 Etest; assay type: functional; details: not given

Structure (SMILES)	MIC
C[C@@H](O)[C@H]1C(=O)N2C(C(=O)O)=C(SCCNC=N)C[C@H]12 [IMIPENEM ANHYDROUS]	2 µg/mL (≈ 6.68 µM)

system: Pseudomonas aeruginosa; test: Antimicrobial activity against Pseudomonas aeruginosa 1405-con D2 by Etest; assay type: functional; details: not given

Structure (SMILES)	MIC
C[C@@H](O)[C@H]1C(=O)N2C(C(=O)O)=C(SCCNC=N)C[C@H]12 [IMIPENEM ANHYDROUS]	16 µg/mL (≈ 53.4 µM)

system: Pseudomonas aeruginosa; test: Antimicrobial activity against Pseudomonas aeruginosa isolate 1712c from fibrosis patient by Etest; assay type: functional; details: not given

Structure (SMILES)	MIC
C[C@@H](O)[C@H]1C(=O)N2C(C(=O)O)=C(SCCNC=N)C[C@H]12 [IMIPENEM ANHYDROUS]	32 µg/mL (≈ 107 µM)

system: Pseudomonas aeruginosa; test: microbe, parasite or virus in culture; details: isolate 13120
Description: Antimicrobial activity against Pseudomonas aeruginosa isolate 13120 from fibrosis patient by Etest

Structure (SMILES)	MIC
C[C@@H](O)[C@H]1C(=O)N2C(C(=O)O)=C(SCCNC=N)C[C@H]12 [IMIPENEM ANHYDROUS]	16 µg/mL (≈ 53.4 µM)

system: Pseudomonas aeruginosa; test: Antimicrobial activity against Pseudomonas aeruginosa isolate 1248c from fibrosis patient by Etest; assay type: functional; details: not given

Structure (SMILES)	MIC
C[C@@H](O)[C@H]1C(=O)N2C(C(=O)O)=C(SCCNC=N)C[C@H]12 [IMIPENEM ANHYDROUS]	16 µg/mL (≈ 53.4 µM)

system: Pseudomonas aeruginosa; test: Antimicrobial activity against Pseudomonas aeruginosa isolate 3149 from fibrosis patient by Etest; assay type: functional; details: not given

Structure (SMILES)	MIC
C[C@@H](O)[C@H]1C(=O)N2C(C(=O)O)=C(SCCNC=N)C[C@H]12 [IMIPENEM ANHYDROUS]	32 µg/mL (≈ 107 µM)

system: Pseudomonas aeruginosa; test: microbe, parasite or virus in culture; details: 2779-con
Description: Antimicrobial activity against Pseudomonas aeruginosa 2779-con by Etest

Structure (SMILES)	MIC
C[C@@H](O)[C@H]1C(=O)N2C(C(=O)O)=C(SCCNC=N)C[C@H]12 [IMIPENEM ANHYDROUS]	2 µg/mL (≈ 6.68 µM)

system: Pseudomonas aeruginosa; test: Antimicrobial activity against Pseudomonas aeruginosa isolate 1240 from fibrosis patient by Etest; assay type: functional; details: not given

Structure (SMILES)	MIC
C[C@@H](O)[C@H]1C(=O)N2C(C(=O)O)=C(SCCNC=N)C[C@H]12 [IMIPENEM ANHYDROUS]	16 µg/mL (≈ 53.4 µM)

system: Pseudomonas aeruginosa; test: Antimicrobial activity against Pseudomonas aeruginosa isolate 12142c from fibrosis patient by Etest; assay type: functional; details: not given

Structure (SMILES)	MIC
C[C@@H](O)[C@H]1C(=O)N2C(C(=O)O)=C(SCCNC=N)C[C@H]12 [IMIPENEM ANHYDROUS]	32 µg/mL (≈ 107 µM)

system: Pseudomonas aeruginosa; test: Antimicrobial activity against Pseudomonas aeruginosa isolate 1495c from fibrosis patient by Etest; assay type: functional; details: not given

Structure (SMILES)	MIC
C[C@@H](O)[C@H]1C(=O)N2C(C(=O)O)=C(SCCNC=N)C[C@H]12 [IMIPENEM ANHYDROUS]	> 32 µg/mL

system: Pseudomonas aeruginosa; test: Antimicrobial activity against Pseudomonas aeruginosa Z799/61 by Etest; assay type: functional; details: not given

Structure (SMILES)	MIC
C[C@@H](O)[C@H]1C(=O)N2C(C(=O)O)=C(SCCNC=N)C[C@H]12 [IMIPENEM ANHYDROUS]	0.5 µg/mL (≈ 1.67 µM)

system: Pseudomonas aeruginosa; test: Antimicrobial activity against Pseudomonas aeruginosa isolate 1333c from fibrosis patient by Etest; assay type: functional; details: not given

Structure (SMILES)	MIC
C[C@@H](O)[C@H]1C(=O)N2C(C(=O)O)=C(SCCNC=N)C[C@H]12 [IMIPENEM ANHYDROUS]	32 µg/mL (≈ 107 µM)

system: Pseudomonas aeruginosa; test: Antimicrobial activity against Pseudomonas aeruginosa M1251 by Etest; details: not given

Structure (SMILES)	MIC
C[C@@H](O)[C@H]1C(=O)N2C(C(=O)O)=C(SCCNC=N)C[C@H]12 [IMIPENEM ANHYDROUS]	4 µg/mL (≈ 13.4 µM)

system: Pseudomonas aeruginosa; test: Antimicrobial activity against Pseudomonas aeruginosa AHP Etest; assay type: functional; details: not given

Structure (SMILES)	MIC
C[C@@H](O)[C@H]1C(=O)N2C(C(=O)O)=C(SCCNC=N)C[C@H]12 [IMIPENEM ANHYDROUS]	0.12 µg/mL (≈ 0.401 µM)

system: Pseudomonas aeruginosa; test: Antimicrobial activity against Pseudomonas aeruginosa isolate 15110c from fibrosis patient by Etest; assay type: functional; details: not given

Structure (SMILES)	MIC
C[C@@H](O)[C@H]1C(=O)N2C(C(=O)O)=C(SCCNC=N)C[C@H]12 [IMIPENEM ANHYDROUS]	> 32 µg/mL

system: Pseudomonas aeruginosa; test: Antimicrobial activity against Pseudomonas aeruginosa isolate 1253 from fibrosis patient by Etest; assay type: functional; details: not given

Structure (SMILES)	MIC
C[C@@H](O)[C@H]1C(=O)N2C(C(=O)O)=C(SCCNC=N)C[C@H]12 [IMIPENEM ANHYDROUS]	> 32 µg/mL

system: Pseudomonas aeruginosa; test: Antimicrobial activity against Pseudomonas aeruginosa isolate 1529c from fibrosis patient by Etest; assay type: functional; details: not given

Structure (SMILES)	MIC
C[C@@H](O)[C@H]1C(=O)N2C(C(=O)O)=C(SCCNC=N)C[C@H]12 [IMIPENEM ANHYDROUS]	16 µg/mL (≈ 53.4 µM)

system: Pseudomonas aeruginosa; test: Antimicrobial activity against Pseudomonas aeruginosa isolate 1530c from fibrosis patient by Etest; assay type: functional; details: not given

Structure (SMILES)	MIC
C[C@@H](O)[C@H]1C(=O)N2C(C(=O)O)=C(SCCNC=N)C[C@H]12 [IMIPENEM ANHYDROUS]	8 µg/mL (≈ 26.7 µM)

system: Pseudomonas aeruginosa; test: Antimicrobial activity against Pseudomonas aeruginosa isolate 1247c from fibrosis patient by Etest; assay type: functional; details: not given

Structure (SMILES)	MIC
C[C@@H](O)[C@H]1C(=O)N2C(C(=O)O)=C(SCCNC=N)C[C@H]12 [IMIPENEM ANHYDROUS]	16 µg/mL (≈ 53.4 µM)

system: Pseudomonas aeruginosa; test: Antimicrobial activity against Pseudomonas aeruginosa isolate 13167 from fibrosis patient by Etest; assay type: functional; details: not given

Structure (SMILES)	MIC
C[C@@H](O)[C@H]1C(=O)N2C(C(=O)O)=C(SCCNC=N)C[C@H]12 [IMIPENEM ANHYDROUS]	4 µg/mL (≈ 13.4 µM)

system: Pseudomonas aeruginosa; test: Antimicrobial activity against Pseudomonas aeruginosa isolate 1693c from fibrosis patient by Etest; assay type: functional; details: not given

Structure (SMILES)	MIC
C[C@@H](O)[C@H]1C(=O)N2C(C(=O)O)=C(SCCNC=N)C[C@H]12 [IMIPENEM ANHYDROUS]	8 µg/mL (≈ 26.7 µM)

system: Pseudomonas aeruginosa; test: Antimicrobial activity against Pseudomonas aeruginosa isolate 15107 from fibrosis patient by Etest; assay type: functional; details: not given

Structure (SMILES)	MIC
C[C@@H](O)[C@H]1C(=O)N2C(C(=O)O)=C(SCCNC=N)C[C@H]12 [IMIPENEM ANHYDROUS]	8 µg/mL (≈ 26.7 µM)
